Measurements reported in PubChem BioAssay AID264 (DTP/NCI, 2004).
Values joined by “and” are separate entries in the source; they are usually repeats but may differ in a detail not shown here. Equal entries are not always repeated. Inconclusive results are not listed.

System: nude mice, LX-1 lung xenograft intrarenal, tumor weight T/C
Test: NCI In Vivo Anticancer Drug Screen. Data for tumor model Human Lung LX-1 Xenograft (intrarenal inoculation) in NU/NU Swiss (nude) mice
Settings: endpoint: mean tumor weight change, higher = larger tumour
Summary of the method: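 Antitumor effect is expressed as a ratio: the mean tumor measurement of the drug-treated group relative to that of the vehicle-dosed control group.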

[1] = dose: 200.0 mg/kg/injection, schedule: Q01DX010 (sc), vehicle: saline
[2] = dose: 400.0 mg/kg/injection, schedule: Q01DX010 (sc), vehicle: saline
[3] = dose: 300.0 mg/kg/injection, schedule: Q04DX003 (sc), vehicle: Klucel (hydroxypropylcellulose) (HPC)
[4] = dose: 600.0 mg/kg/injection, schedule: Q04DX003 (sc), vehicle: Klucel (hydroxypropylcellulose) (HPC)
[5] = dose: 1200.0 mg/kg/injection, schedule: Q04DX003 (sc), vehicle: Klucel (hydroxypropylcellulose) (HPC)
[6] = dose: 2400.0 mg/kg/injection, schedule: Q04DX003 (sc), vehicle: Klucel (hydroxypropylcellulose) (HPC)
[7] = dose: 150.0 mg/kg/injection, schedule: Q04DX003 (sc), vehicle: Klucel (hydroxypropylcellulose) (HPC)

Q: Which results are given for `NC(=S)N/N=C/c1ccc(OC(=O)COc2ccc(Cl)cc2)cn1`?
A: T/C (dose: 300.0 mg/kg/injection, schedule: Q04DX003 (sc), vehicle: saline with Tween-80): 54 % of control; T/C (dose: 600.0 mg/kg/injection, schedule: Q04DX003 (sc), vehicle: saline with Tween-80): 44 % of control; T/C (dose: 1200.0 mg/kg/injection, schedule: Q04DX003 (sc), vehicle: saline with Tween-80): 23 % of control

Q: Which results are given for `O=C(O)CC(NC(=O)CP(=O)(O)O)C(=O)O` (centres undefined)?
A: T/C (dose: 25.0 mg/kg/injection, schedule: Q01DX010 (sc), vehicle: saline): 51 % of control; T/C (dose: 50.0 mg/kg/injection, schedule: Q01DX010 (sc), vehicle: saline): 90 % of control; T/C [1]: 57 % of control; T/C [2]: 174 % of control

Q: What does the source list for `O.O.[NH-]C1CCCCC1[NH-].[Pt+2]` (centres undefined)?
A: T/C (dose: 5.0 mg/kg/injection, schedule: Q01DX010 (sc), vehicle: dextrose): 68 % of control; T/C (dose: 10.0 mg/kg/injection, schedule: Q01DX010 (sc), vehicle: dextrose): 74 % of control; T/C (dose: 20.0 mg/kg/injection, schedule: Q01DX010 (sc), vehicle: dextrose): 57 % of control

Q: What does the source list for `C1CCC2OCCOCCOC3CCCCC3OCCOCCOC2C1` (centres undefined)?
A: T/C (dose: 9.38 mg/kg/injection, schedule: Q04DX003 (sc), vehicle: Klucel (hydroxypropylcellulose) (HPC)): 170 % of control; T/C (dose: 18.75 mg/kg/injection, schedule: Q04DX003 (sc), vehicle: Klucel (hydroxypropylcellulose) (HPC)): 159 % of control

Q: Which T/C [3] does the source give for `C#C[C@]1(O)CC[C@H]2[C@@H]3CCc4cc(O)ccc4[C@H]3CC[C@@]21C` here?
A: 70 % of control

Q: And the T/C [4]?
A: 102 % of control

Q: And the T/C [5]?
A: 50 % of control

Q: And the T/C [6]?
A: 55 % of control

Q: For `Cn1cnc([N+](=O)[O-])c1SCC(=O)O`, which T/C (dose: 100.0 mg/kg/injection, schedule: Q01DX010 (sc), vehicle: saline) is on record?
A: 71 % of control

Q: What about the T/C [1] of the same molecule?
A: 83 % of control

Q: And the T/C [2]?
A: 103 % of control

Q: What about the T/C (dose: 800.0 mg/kg/injection, schedule: Q01DX010 (sc), vehicle: saline) of the same molecule?
A: 66 % of control

Q: Which T/C [3] does the source give for `Cc1ccc(S(=O)(=O)OCOS(=O)(=O)c2ccc(C)cc2)cc1` here?
A: 79 % of control

Q: What about the T/C [4] of the same molecule?
A: 95 % of control

Q: What about the T/C [5] of the same molecule?
A: 74 % of control

Q: And the T/C [6]?
A: 100 % of control

Q: With `CSCS(=O)C[C@H](CO)NC(=O)/C=C/c1c(C)[nH]c(=O)[nH]c1=O` (some centres undefined) as the molecule, how does the T/C (dose: 0.75 mg/kg/injection, schedule: Q04DX003 (sc), vehicle: saline) read?
A: 76 % of control

Q: And the T/C (dose: 1.5 mg/kg/injection, schedule: Q04DX003 (sc), vehicle: saline)?
A: 70 % of control

Q: What about the T/C (dose: 3.0 mg/kg/injection, schedule: Q04DX003 (sc), vehicle: saline) of the same molecule?
A: 68 % of control

Q: Which results are given for `COc1cc(C(=O)c2cc3c(cc2C)OCO3)cc(OC)c1OC`?
A: T/C [7]: 78 % of control; T/C [3]: 71 % of control; T/C [4]: 80 % of control; T/C [5]: 82 % of control

Q: How did the T/C (dose: 6.25 mg/kg/injection, schedule: Q04DX003 (sc), vehicle: saline with Tween-80) turn out when `CC(C)(C)N1CC1CNC(=O)C(=O)NCC1CN1C(C)(C)C` (centres undefined) was run?
A: 87 % of control

Q: What about the T/C (dose: 12.5 mg/kg/injection, schedule: Q04DX003 (sc), vehicle: saline with Tween-80) of the same molecule?
A: 76 % of control

Q: What about the T/C (dose: 25.0 mg/kg/injection, schedule: Q04DX003 (sc), vehicle: saline with Tween-80) of the same molecule?
A: 70 % of control

Q: Which T/C (dose: 1.25 mg/kg/injection, schedule: Q04DX003 (sc), vehicle: distilled water + Tween-80) does the source give for `CC(C)=CC(=O)OC1C2C(C)=CC(=O)C(O)C2(C)C2C3(O)OCC24C(CC(=O)OC14)C(C)C3O` (centres undefined) here?
A: 92 % of control

Q: What about the T/C (dose: 2.5 mg/kg/injection, schedule: Q04DX003 (sc), vehicle: distilled water + Tween-80) of the same molecule?
A: 90 % of control

Q: How did the T/C [7] turn out when `Cc1cc(N/N=C/c2ccccn2)nc2ccccc12` was run?
A: 89 % of control

Q: And the T/C [3]?
A: 103 % of control

Q: And the T/C [4]?
A: 115 % of control

Q: And the T/C [5]?
A: 98 % of control

Q: Which T/C (dose: 18.75 mg/kg/injection, schedule: Q04DX003 (sc), vehicle: saline with Tween-80) does the source give for `COC(=O)C(F)C(Br)C(=O)OC` (centres undefined) here?
A: 91 % of control

Q: What about the T/C (dose: 37.5 mg/kg/injection, schedule: Q04DX003 (sc), vehicle: saline with Tween-80) of the same molecule?
A: 111 % of control

Q: What about the T/C (dose: 75.0 mg/kg/injection, schedule: Q04DX003 (sc), vehicle: saline with Tween-80) of the same molecule?
A: 90 % of control

Q: What does the source list for `C=C1C(=O)OC2CC(C)C3C4OC4C(O)C3(C)C(O)C12` (centres undefined)?
A: T/C (dose: 100.0 mg/kg/injection, schedule: Q04DX003 (sc), vehicle: saline with Tween-80): 97 % of control; T/C (dose: 800.0 mg/kg/injection, schedule: Q04DX003 (sc), vehicle: saline with Tween-80): 75 % of control

Q: Which results are given for `COc1cc2c(c(OC)c1OC)-c1ccc(OC)c(=O)cc1[C@@H](N)CC2`?
A: T/C (dose: 0.31 mg/kg/injection, schedule: Q01DX010 (sc), vehicle: Klucel (hydroxypropylcellulose) (HPC)): 104 % of control; T/C (dose: 0.63 mg/kg/injection, schedule: Q01DX010 (sc), vehicle: Klucel (hydroxypropylcellulose) (HPC)): 74 % of control; T/C (dose: 1.25 mg/kg/injection, schedule: Q01DX010 (sc), vehicle: Klucel (hydroxypropylcellulose) (HPC)): 76 % of control; T/C (dose: 1.57 mg/kg/injection, schedule: Q01DX010 (sc), vehicle: Klucel (hydroxypropylcellulose) (HPC)): 79 % of control; T/C (dose: 2.5 mg/kg/injection, schedule: Q01DX010 (sc), vehicle: Klucel (hydroxypropylcellulose) (HPC)): 50 % of control; T/C (dose: 3.13 mg/kg/injection, schedule: Q01DX010 (sc), vehicle: Klucel (hydroxypropylcellulose) (HPC)): 61 % of control; T/C (dose: 6.25 mg/kg/injection, schedule: Q01DX010 (sc), vehicle: Klucel (hydroxypropylcellulose) (HPC)): 66 % of control

Q: With `CCCCCCCC(=O)OCC(=O)[C@]1(O)Cc2c(O)c3c(c(O)c2[C@@H](OC2CC(N)C(O)C(C)O2)C1)C(=O)c1c(OC)cccc1C3=O` (some centres undefined) as the molecule, how does the T/C (dose: 2.0 mg/kg/injection, schedule: Q01DX010 (sc), vehicle: saline) read?
A: 104 % of control

Q: What about the T/C (dose: 4.0 mg/kg/injection, schedule: Q01DX010 (sc), vehicle: saline) of the same molecule?
A: 173 % of control

Q: Which results are given for `CC1=CC2C(O)(CC(CO)=CC3C4C(C)(C)C4(OC(=O)c4ccccc4)C(OC(=O)c4ccccc4)C(C)C32O)C1=O` (centres undefined)?
A: T/C (dose: 1.25 mg/kg/injection, schedule: Q04DX003 (sc), vehicle: saline with Tween-80): 77 % of control; T/C (dose: 2.5 mg/kg/injection, schedule: Q04DX003 (sc), vehicle: saline with Tween-80): 73 % of control; T/C (dose: 5.0 mg/kg/injection, schedule: Q04DX003 (sc), vehicle: saline with Tween-80): 76 % of control; T/C (dose: 10.0 mg/kg/injection, schedule: Q04DX003 (sc), vehicle: saline with Tween-80): 43 % of control

Q: For `COC1/C=C\C=C(/C)C(=O)NC2=CC(=O)C=C(C2=O)C(OC)C(C)CC(OC)C(OC)C(C)/C=C(/C)C1OC(N)=O` (centres undefined), which T/C (dose: 4.5 mg/kg/injection, schedule: Q04DX003 (sc), vehicle: Klucel (hydroxypropylcellulose) (HPC)) is on record?
A: 82 % of control

Q: How did the T/C (dose: 400.0 mg/kg/injection, schedule: Q01DX010 (sc), vehicle: Klucel (hydroxypropylcellulose) (HPC)) turn out when `CC(=O)[O][Pb]([O]C(C)=O)([c]1ccccc1)[c]1ccccc1` was run?
A: 40 % of control

Q: `CCC1CC2CN(CCc3c([nH]c4ccccc34)C(C(=O)OC)(c3cc4c(cc3OC)N(C)C3C(O)(C(=O)OC)C(OC(C)=O)C5(CC)C=CCN6CCC43C65)C2)C1` (centres undefined) was tested. Which T/C (dose: 4.0 mg/kg/injection, schedule: Q04DX003 (sc), vehicle: saline) did it give?
A: 63 % of control and 64 % of control

Q: And the T/C (dose: 4.0 mg/kg/injection, schedule: Q04DX003 (sc), vehicle: suspension in saline)?
A: 31 % of control and 33 % of control

Q: And the T/C (dose: 16.0 mg/kg/injection, schedule: Q04DX003 (sc), vehicle: saline)?
A: 6 % of control and 12 % of control

Q: With `O=C(O)CCCc1ccc(N(CCCl)CCCl)cc1` as the molecule, how does the T/C (dose: 16.0 mg/kg/injection, schedule: Q01DX010 (sc), vehicle: saline with Tween-80) read?
A: 30 % of control
